Values of other authors as cited in paper PMC7582876, “Antiproliferative Properties of a Few Auranofin-Related Gold(I) and Silver(I) Complexes in Leukemia Cells and their Interferences with the Ubiquitin Proteasome System” (Molecules, 2020).

System: CEM/ADR5000 cells
Set-up: method as in PMID 18413831
Details: ref [27]; cited from earlier work

## COc1cccc2c1C(=O)c1c(O)c3c(c(O)c1C2=O)C[C@@](O)(C(=O)CO)C[C@@H]3O[C@H]1C[C@H](N)[C@H](O)[C@H](C)O1 [doxorubicin, Doxorubicin]
  resistance to doxorubicin: more than 1000 fold
